Converted amounts (≈) assume the structure as drawn.
Experiments:
Assay type in all cases: functional
[1] = tested on: Streptococcus pneumoniae; test: Antibacterial activity against erythromycin-resistant Streptococcus pneumoniae B1 expressing erm gene by broth microdilution method
[2] = tested on: Streptococcus pneumoniae; test: Ratio of clarithromycin MIC to compound MIC for erythromycin-resistant Streptococcus pneumoniae A22072 expressing mef gene
[3] = tested on: Streptococcus pneumoniae; test: Ratio of erythromycin MIC to compound MIC for erythromycin-resistant Streptococcus pneumoniae A22072 expressing mef gene
[4] = tested on: Streptococcus pneumoniae; test: Ratio of clarithromycin MIC to compound MIC for erythromycin-resistant Streptococcus pneumoniae B1 expressing erm gene
[5] = tested on: Streptococcus pneumoniae; test: Antibacterial activity against erythromycin-susceptible Streptococcus pneumoniae ATCC 49619 by broth microdilution method
[6] = tested on: Streptococcus pneumoniae; test: Ratio of azithromycin MIC to compound MIC for erythromycin-resistant Streptococcus pneumoniae B1 expressing erm gene
[7] = tested on: Staphylococcus aureus; test: Ratio of clarithromycin MIC to compound MIC for erythromycin-susceptible Staphylococcus aureus ATCC 25923
[8] = tested on: Streptococcus pneumoniae; test: Antibacterial activity against erythromycin-resistant Streptococcus pneumoniae AB11 expressing erm and mef gene by broth microdilution method
[9] = tested on: Streptococcus pneumoniae; test: Antibacterial activity against erythromycin-resistant Streptococcus pneumoniae A22072 expressing mef gene by broth microdilution method
[10] = tested on: Streptococcus pneumoniae; test: Ratio of clarithromycin MIC to compound MIC for erythromycin-susceptible Streptococcus pneumoniae ATCC 49619
[11] = tested on: Streptococcus pneumoniae; test: Ratio of erythromycin MIC to compound MIC for erythromycin-resistant Streptococcus pneumoniae B1 expressing erm gene
[12] = tested on: Staphylococcus aureus; test: Antibacterial activity against erythromycin-susceptible Staphylococcus aureus ATCC 25923 by broth microdilution method

Q: How did the MIC [1] turn out when `CC[C@H]1OC(=O)[C@H](C)[C@@H](O[C@H]2C[C@@](C)(OC)[C@@H](OC(=O)NNC(=O)c3ccc4[nH]c(-c5ccccc5OC)nc4c3)[C@H](C)O2)[C@H](C)[C@@H](O[C@@H]2O[C@H](C)C[C@H](N(C)C)[C@H]2O)[C@](C)(OC)C[C@@H](C)C(=O)[C@H](C)[C@@H](O)[C@]1(C)O` was run?
A: 2 µg/mL (≈ 1.89 µM)

Q: What about the Ratio [2] of the same molecule?
A: 133

Q: And the Ratio [3]?
A: 267

Q: What about the Ratio [4] of the same molecule?
A: 64

Q: What about the MIC [5] of the same molecule?
A: 0.03 µg/mL (≈ 0.0284 µM)

Q: And the Ratio [6]?
A: 64

Q: What about the Ratio [7] of the same molecule?
A: 4

Q: And the MIC [8]?
A: 16 µg/mL (≈ 15.1 µM)

Q: And the MIC [9]?
A: 0.03 µg/mL (≈ 0.0284 µM)

Q: What about the Ratio [10] of the same molecule?
A: 4

Q: What about the Ratio [11] of the same molecule?
A: 64

Q: What about the MIC [12] of the same molecule?
A: 0.03 µg/mL (≈ 0.0284 µM)

Reference: ChEMBL document CHEMBL1795320, “Synthesis and antibacterial activity of novel 4″-O-benzimidazolyl clarithromycin derivatives” (2011)
